{"source": "ChEMBL document CHEMBL5038618", "about": "“Discovery of PT-65 as a highly potent and selective Proteolysis-targeting chimera degrader of GSK3 for treating Alzheimer's disease” (Eur J Med Chem, 2021)", "key": {"[1]": {"target": "T1, Protein cereblon/Glycogen synthase kinase-3 beta (Homo sapiens, UniProt P49841+Q96SW2)", "assay": "Protac activity at CRBN/GSK3beta in human SH-SY5Y cells assessed as induction of GSK3beta degradation at 1 uM measured after 24 hrs", "assay_type": "cell-based"}, "[2]": {"tested_on": "SH-SY5Y", "assay": "Downregulation of GSK3alpha expression in human SH-SY5Y cells at 62.5 to 500 nM pretreated for 2 hrs followed by Abeta42 coincubation for 72 hrs by Westernblot analysis", "assay_type": "functional, cell-based", "conditions": "dose 62.5-500 nM, time 74.0 hrs"}, "[3]": {"tested_on": "SH-SY5Y", "assay": "Downregulation of GSK3beta expression in human SH-SY5Y cells at 62.5 to 500 nM pretreated for 2 hrs followed by Abeta42 coincubation for 72 hrs by Westernblot analysis", "assay_type": "functional, cell-based", "conditions": "dose 62.5-500 nM, time 74.0 hrs"}, "[4]": {"tested_on": "SH-SY5Y", "assay": "Cytotoxicity against human SH-SY5Y cells assessed as cell viability upto 100 uM measured after 72 hrs by CCK8 assay", "assay_type": "functional, cell-based", "conditions": "dose microM <=100, time 72.0 hrs"}, "[5]": {"tested_on": "SH-SY5Y", "assay": "Induction of apoptosis in human SH-SY5Y cells assessed as live cells at 62.5 nM preincubated for 2 hrs followed by coincubation with Abeta42 and measured after 72 hrs by Annexin V-FITC/propidium iodide staining based flow cytometry (Rvb=94.8%)", "assay_type": "functional", "conditions": "time 74 hrs"}, "[6]": {"tested_on": "SH-SY5Y", "assay": "Cytotoxicity against human SH-SY5Y cells assessed as increase in cell viability at 62.5 to 250 nM pretreated for 2 hrs followed by Abeta42 addition and measured after 72 hrs by CCK8 assay", "assay_type": "functional, cell-based", "conditions": "dose 62.5-250 nM, time 74.0 hrs"}, "[7]": {"tested_on": "SH-SY5Y", "assay": "Induction of apoptosis in human SH-SY5Y cells assessed as late apoptotic cells at 62.5 nM preincubated for 2 hrs followed by coincubation with Abeta42 and measured after 72 hrs by Annexin V-FITC/propidium iodide staining based flow cytometry (Rvb=3.5%)", "assay_type": "functional", "conditions": "time 74 hrs"}, "[8]": {"tested_on": "Rattus norvegicus", "assay": "Improvement in learning and spatial memory in okadaic acid induced Sprague-Dawley rat assessed as increase in time spent in target quadrant at 200 to 600 uM, iv measured after 6 days by Morris water maze test", "assay_type": "functional, organism-based", "conditions": "dose 200-600 µM, time 6.0 day"}, "[9]": {"tested_on": "SH-SY5Y", "assay": "Effect on tau protein expression in human SH-SY5Y cells assessed as reduction on phosphorylated tau threonine205 residue level at 62.5 to 500 nM pretreated for 2 hrs followed by Abeta42 coincubation for 72 hrs by Westernblot analysis", "assay_type": "functional, cell-based", "conditions": "dose 62.5-500 nM, time 74.0 hrs"}, "[10]": {"tested_on": "SH-SY5Y", "assay": "Effect on tau protein expression in human SH-SY5Y cells assessed as reduction on phosphorylated tau Ser396 residue level at 62.5 to 500 nM pretreated for 2 hrs followed by Abeta42 coincubation for 72 hrs by Westernblot analysis", "assay_type": "functional, cell-based", "conditions": "dose 62.5-500 nM, time 74.0 hrs"}, "[11]": {"tested_on": "SH-SY5Y", "assay": "Effect on tau protein expression in human SH-SY5Y cells assessed as reduction on phosphorylated tau Ser404 residue level at 62.5 to 500 nM pretreated for 2 hrs followed by Abeta42 coincubation for 72 hrs by Westernblot analysis", "assay_type": "functional, cell-based", "conditions": "dose 62.5-500 nM, time 74.0 hrs"}, "[12]": {"target": "T1, Protein cereblon/Glycogen synthase kinase-3 beta", "assay": "Protac activity at CRBN/GSK3beta in human SH-SY5Y cells assessed as GSK3beta degradation at 1 uM pretreated with pomalidomide for 2 hrs followed by compound addition and measured after 24 hrs", "assay_type": "cell-based"}, "[13]": {"target": "Glycogen synthase kinase-3 alpha (Homo sapiens) (UniProt P49840)", "sequence (P49840 2-483 limits assumed)": "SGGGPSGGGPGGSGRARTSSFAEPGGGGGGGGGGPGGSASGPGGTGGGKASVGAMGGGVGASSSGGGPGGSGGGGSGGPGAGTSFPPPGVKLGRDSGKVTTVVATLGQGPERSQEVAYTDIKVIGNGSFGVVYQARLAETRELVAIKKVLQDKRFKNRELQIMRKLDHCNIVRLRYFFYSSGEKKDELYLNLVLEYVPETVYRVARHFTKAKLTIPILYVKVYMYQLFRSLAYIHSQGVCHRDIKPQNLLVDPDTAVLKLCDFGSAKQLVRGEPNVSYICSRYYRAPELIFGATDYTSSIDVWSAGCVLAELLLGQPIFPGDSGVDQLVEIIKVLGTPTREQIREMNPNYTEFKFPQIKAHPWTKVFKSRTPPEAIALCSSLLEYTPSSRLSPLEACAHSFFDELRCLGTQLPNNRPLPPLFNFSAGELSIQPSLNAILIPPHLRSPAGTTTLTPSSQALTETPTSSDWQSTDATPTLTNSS", "assay": "Induction of GSK3alpha degradation in human SH-SY5Y cells assessed as maximum degradation at 1 uM measured after 9 hrs by western blot assay", "assay_type": "cell-based"}, "[14]": {"target": "T2, Glycogen synthase kinase-3 beta (Homo sapiens, UniProt P49841)", "assay": "Binding affinity to recombinant GSK3beta (unknown origin) assessed as dissociation […] constant upto 0.00975 uM by SPR analysis"}, "[15]": {"target": "T1, Protein cereblon/Glycogen synthase kinase-3 beta", "assay": "Protac activity at CRBN/GSK3beta in human SH-SY5Y cells assessed as induction of GSK3beta degradation measured after 24 hrs", "assay_type": "cell-based"}, "[16]": {"assay": "Downregulation of GSK3alpha expression in human SH-SY5Y cells accessed as fold change in GSK3alpha expression at 1 uM measured after 4 hrs by proteomic analysis", "assay_type": "functional"}, "[17]": {"tested_on": "SH-SY5Y", "assay": "Induction of apoptosis in human SH-SY5Y cells assessed as necrotic cells at 62.5 nM preincubated for 2 hrs followed by coincubation with Abeta42 and measured after 72 hrs by Annexin V-FITC/propidium iodide staining based flow cytometry (Rvb=0.7%)", "assay_type": "functional", "conditions": "time 74 hrs"}, "[18]": {"tested_on": "SH-SY5Y", "assay": "Induction of apoptosis in human SH-SY5Y cells assessed as necrotic cells at 125 nM preincubated for 2 hrs followed by coincubation with Abeta42 and measured after 72 hrs by Annexin V-FITC/propidium iodide staining based flow cytometry (Rvb=0.7%)", "assay_type": "functional", "conditions": "time 74 hrs"}, "[19]": {"tested_on": "SH-SY5Y", "assay": "Induction of apoptosis in human SH-SY5Y cells assessed as late apoptotic cells at 125 nM preincubated for 2 hrs followed by coincubation with Abeta42 and measured after 72 hrs by Annexin V-FITC/propidium iodide staining based flow cytometry (Rvb=3.5%)", "assay_type": "functional", "conditions": "time 74 hrs"}, "[20]": {"tested_on": "SH-SY5Y", "assay": "Induction of apoptosis in human SH-SY5Y cells assessed as early apoptotic cells at 125 nM preincubated for 2 hrs followed by coincubation with Abeta42 and measured after 72 hrs by Annexin V-FITC/propidium iodide staining based flow cytometry (Rvb=1%)", "assay_type": "functional", "conditions": "time 74 hrs"}, "[21]": {"tested_on": "SH-SY5Y", "assay": "Induction of apoptosis in human SH-SY5Y cells assessed as live cells at 250 nM preincubated for 2 hrs followed by coincubation with Abeta42 and measured after 72 hrs by Annexin V-FITC/propidium iodide staining based flow cytometry (Rvb=94.8%)", "assay_type": "functional", "conditions": "time 74 hrs"}, "[22]": {"tested_on": "SH-SY5Y", "assay": "Induction of apoptosis in human SH-SY5Y cells assessed as early apoptotic cells at 250 nM preincubated for 2 hrs followed by coincubation with Abeta42 and measured after 72 hrs by Annexin V-FITC/propidium iodide staining based flow cytometry (Rvb=1%)", "assay_type": "functional", "conditions": "time 74 hrs"}, "[23]": {"target": "Protein cereblon/Glycogen synthase kinase-3 alpha (Homo sapiens, UniProt P49840+Q96SW2)", "sequence (P49840 2-483 limits assumed)": "as above", "sequence (Q96SW2 whole entry partner)": "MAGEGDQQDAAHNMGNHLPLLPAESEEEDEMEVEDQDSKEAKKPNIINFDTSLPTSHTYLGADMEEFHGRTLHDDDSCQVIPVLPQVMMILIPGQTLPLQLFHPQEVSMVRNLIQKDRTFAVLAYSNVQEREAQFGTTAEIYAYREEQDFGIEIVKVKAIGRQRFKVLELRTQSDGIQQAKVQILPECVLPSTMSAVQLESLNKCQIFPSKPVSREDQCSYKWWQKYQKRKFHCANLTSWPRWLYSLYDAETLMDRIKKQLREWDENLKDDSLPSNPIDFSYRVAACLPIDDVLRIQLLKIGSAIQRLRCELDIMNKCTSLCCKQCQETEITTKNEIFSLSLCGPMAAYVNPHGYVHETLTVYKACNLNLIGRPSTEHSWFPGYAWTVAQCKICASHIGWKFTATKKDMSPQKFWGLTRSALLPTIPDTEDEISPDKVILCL", "assay": "Protac activity at CRBN/GSK3alpha in human SH-SY5Y cells assessed as induction of GSK3alpha degradation at 0.1 uM measured after 24 hrs", "assay_type": "cell-based"}, "[24]": {"target": "T1, Protein cereblon/Glycogen synthase kinase-3 beta", "assay": "Protac activity at CRBN/GSK3beta in human SH-SY5Y cells assessed as induction of GSK3beta degradation at 0.1 uM measured after 24 hrs", "assay_type": "cell-based"}, "[25]": {"target": "hERG (KCNH2) (Homo sapiens, UniProt Q12809)", "sequence (Q12809 whole entry)": "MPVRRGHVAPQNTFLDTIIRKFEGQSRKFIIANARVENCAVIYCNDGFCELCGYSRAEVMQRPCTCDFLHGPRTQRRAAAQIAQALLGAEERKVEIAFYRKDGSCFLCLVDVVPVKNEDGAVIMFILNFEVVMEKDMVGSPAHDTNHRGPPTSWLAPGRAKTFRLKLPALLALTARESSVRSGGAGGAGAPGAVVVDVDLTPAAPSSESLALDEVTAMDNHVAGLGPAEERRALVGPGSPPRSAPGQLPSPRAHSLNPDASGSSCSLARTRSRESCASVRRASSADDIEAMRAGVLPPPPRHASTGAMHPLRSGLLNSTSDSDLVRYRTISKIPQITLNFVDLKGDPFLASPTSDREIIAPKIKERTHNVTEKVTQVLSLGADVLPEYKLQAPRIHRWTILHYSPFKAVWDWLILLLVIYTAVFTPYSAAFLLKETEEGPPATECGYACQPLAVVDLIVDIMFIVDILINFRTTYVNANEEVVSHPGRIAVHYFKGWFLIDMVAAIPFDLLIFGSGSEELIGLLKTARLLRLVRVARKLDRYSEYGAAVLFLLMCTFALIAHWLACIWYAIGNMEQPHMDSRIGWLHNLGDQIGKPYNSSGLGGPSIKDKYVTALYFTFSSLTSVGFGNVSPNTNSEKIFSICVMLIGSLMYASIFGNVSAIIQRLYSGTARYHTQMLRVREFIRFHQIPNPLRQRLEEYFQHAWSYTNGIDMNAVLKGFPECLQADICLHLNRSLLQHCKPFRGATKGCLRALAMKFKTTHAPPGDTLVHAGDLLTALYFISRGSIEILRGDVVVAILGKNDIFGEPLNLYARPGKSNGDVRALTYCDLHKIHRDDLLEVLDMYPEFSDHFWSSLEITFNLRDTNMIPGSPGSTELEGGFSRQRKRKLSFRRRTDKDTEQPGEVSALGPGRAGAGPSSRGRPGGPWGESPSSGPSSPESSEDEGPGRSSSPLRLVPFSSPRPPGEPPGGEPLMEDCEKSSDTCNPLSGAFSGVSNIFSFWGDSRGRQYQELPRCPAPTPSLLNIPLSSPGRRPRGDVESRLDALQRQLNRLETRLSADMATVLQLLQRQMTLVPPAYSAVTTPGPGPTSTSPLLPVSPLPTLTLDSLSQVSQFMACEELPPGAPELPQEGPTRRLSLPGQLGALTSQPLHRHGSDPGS", "assay": "Inhibition of hERG expressed in CHO cells at 40 uM by whole cell patch clamp assay", "assay_type": "cell-based", "conditions": "CHO cells that express hERG"}, "[26]": {"tested_on": "Rattus norvegicus", "assay": "Antialzheimer activity against hippocampal tissue of okadaic acid induced Sprague-Dawley rat assessed as reduction on GSK3beta protein level at 200 to 600 uM, iv by western blot assay", "assay_type": "functional, organism-based", "conditions": "Hippocampus, dose 200-600 µM"}, "[27]": {"tested_on": "Rattus norvegicus", "assay": "Antialzheimer activity against hippocampal tissue of okadaic acid induced Sprague-Dawley rat assessed as reduction on tau protein level at 200 to 600 uM, iv by western blot assay", "assay_type": "functional, organism-based", "conditions": "Hippocampus, dose 200-600 µM"}, "[28]": {"tested_on": "Rattus norvegicus", "assay": "Antialzheimer activity against hippocampal tissue of okadaic acid induced Sprague-Dawley rat assessed as reduction on GSK3alpha protein level at 200 to 600 uM, iv by immunohistochemical staining based analysis", "assay_type": "functional, organism-based", "conditions": "Hippocampus, dose 200-600 µM"}, "[29]": {"tested_on": "Rattus norvegicus", "assay": "Antialzheimer activity against hippocampal tissue of okadaic acid induced Sprague-Dawley rat assessed as reduction on tau protein level at 200 to 600 uM, iv by immunohistochemical staining based analysis", "assay_type": "functional, organism-based", "conditions": "Hippocampus, dose 200-600 µM"}, "[30]": {"target": "T2, Glycogen synthase kinase-3 beta", "conditions": "dose microM <=0.00975", "description": "Binding affinity to recombinant GSK3beta (unknown origin) assessed as association rate constant upto 0.00975 uM by SPR analysis"}}, "note": "Activity calls are given as the source filed them. The calls are words filed in the database; no cut-off is given here."}
{"smiles": "Nc1ncc(-c2ccc(S(=O)(=O)N3CCN(CCCCc4cn(CCOCCOCCOCCOCCOCCNc5cccc6c5C(=O)N(C5CCC(=O)NC5=O)C6=O)nn4)CC3)cc2)nc1C(=O)Nc1cccnc1", "note": "(stereo not given)", "values": [{"measurement": "Activity", "setting": "[1]", "result": 90.8, "unit": "%"}, {"measurement": "Activity", "setting": "[2]", "result": "Dose-Dependent Effect"}, {"measurement": "Activity", "setting": "[3]", "result": "Dose-Dependent Effect"}, {"measurement": "Activity", "setting": "[4]", "result": "inactive"}, {"measurement": "Activity", "setting": "[5]", "result": 79, "unit": "%"}, {"measurement": "Activity", "setting": "[6]", "result": "inactive"}, {"measurement": "Activity", "setting": "[7]", "result": 14.3, "unit": "%"}, {"measurement": "Activity", "setting": "[8]", "result": "Active"}, {"measurement": "Activity", "setting": "[9]", "result": "Dose-Dependent Effect"}, {"measurement": "Activity", "setting": "[10]", "result": "Dose-Dependent Effect"}, {"measurement": "Activity", "setting": "[11]", "result": "Dose-Dependent Effect"}, {"measurement": "Activity", "setting": "[12]", "result": "inactive"}, {"measurement": "Activity", "setting": "[13]", "result": "Active"}, {"measurement": "Kd", "setting": "[14]", "result": 0.0253, "unit": "s⁻¹"}, {"measurement": "DC50", "setting": "[15]", "result": 0.0342, "unit": "µM"}, {"measurement": "fold change (FC)", "setting": "[16]", "result": 0.35}, {"measurement": "Activity", "setting": "[17]", "result": 6.7, "unit": "%"}, {"measurement": "Activity", "setting": "[18]", "result": 3.3, "unit": "%"}, {"measurement": "Activity", "setting": "[19]", "result": 12.5, "unit": "%"}, {"measurement": "Activity", "setting": "[20]", "result": 1.2, "unit": "%"}, {"measurement": "Activity", "setting": "[21]", "result": 89.5, "unit": "%"}, {"measurement": "Activity", "setting": "[22]", "result": 1.2, "unit": "%"}, {"measurement": "Activity", "setting": "[23]", "result": 74.4, "unit": "%"}, {"measurement": "Activity", "setting": "[24]", "result": 67.1, "unit": "%"}, {"measurement": "inhibition at 40 µM", "setting": "[25]", "result": 15.4, "unit": "%"}, {"measurement": "Activity", "setting": "[26]", "result": "Active"}, {"measurement": "Activity", "setting": "[27]", "result": "Active"}, {"measurement": "Activity", "setting": "[28]", "result": "Active"}, {"measurement": "Activity", "setting": "[29]", "result": "Active"}, {"measurement": "Ka", "setting": "[30]", "result": "2.04 10^6/Ms"}]}
